Source: US9034922B2, “Composition for maintaining function of platelets” (THE UNIVERSITY OF TOKYO, priority 2010, dated 2015)

Tests used:
[1] = biological target: T1, Matrix metalloproteinase 3 (MMP-3) (Homo sapiens, UniProt P08254); test: Enzyme inhibition experiment, MMP-3; type: biochemical; conditions: 3168 substrate, 37° C., 4 hours
T1 construct: purchased Calbiochem 444217
Experimental: Matrix metalloproteinase 3 (MMP-3) (manufactured by Calbiochem, product number: 444217)
(§1) 3168 substrate (MOCAc-Arg-Pro-Lys-Pro-Val-Glu-Nva-Trp-Arg-Lys(Dnp)-NH2, manufactured by Peptide Institute, Inc.): excitation wavelength at 320 nm, emission wavelength at 405 nm, and 3163 substrate (MOCAc-Pro-Leu-Gly-Leu-A2pr(Dnp)-Ala-Arg-NH2, manufactured by Peptide Institute, Inc.): excitation wavelength at 320 nm, emission wavelength at 405 nm.
(§2) The enzyme reaction was carried out using the enzymes and substrates. Specifically, if necessary, the enzyme was activated in advance with APMA (final concentration 1 mmol/L, p-aminophenylmercuric acetate, manufactured by Sigma-Aldrich Co., A9563) according to information from the manufacturer. Then, in a 96-well plate for fluorescence measurement, 90 μL of an enzyme solution prepared with Assay Buffer A (50 mmol/L Tris-HCl buffer (pH 7.5) containing 200 mmol/L sodium chloride, 5 mmol/L calcium chloride, 10 μmol/L zinc sulfate, and 2 mg/mL bovine serum albumin) was mixed with 90 μL of the substrate adjusted to be 20 μmol/L with Assay Buffer B (50 mmol/L Tris-HCl buffer (pH 7.5) containing 200 mmol/L sodium chloride, 5 mmol/L calcium chloride, 10 μmol/L zinc sulfate, and 0.05% PLURONIC F-68), and incubated for reaction at 25° C. or 37° C. for several hours. Moreover, the fluorescence intensities before and after the reaction were measured using a fluorometer to determine the enzyme activity. An inhibition rate was obtained based on the enzyme activities in the presence and absence of the test substances, and the 50% inhibitory concentration (IC50) was calculated.

ADAM17 = biological target: T2, ADAM17 (Homo sapiens, UniProt P78536); test: ADAM17 inhibition experiment (fluorescent synthetic substrate); type: biochemical
T2 construct: made in house; host or cells: mammalian cells or insect cells
T2 sequence (P78536 215-824): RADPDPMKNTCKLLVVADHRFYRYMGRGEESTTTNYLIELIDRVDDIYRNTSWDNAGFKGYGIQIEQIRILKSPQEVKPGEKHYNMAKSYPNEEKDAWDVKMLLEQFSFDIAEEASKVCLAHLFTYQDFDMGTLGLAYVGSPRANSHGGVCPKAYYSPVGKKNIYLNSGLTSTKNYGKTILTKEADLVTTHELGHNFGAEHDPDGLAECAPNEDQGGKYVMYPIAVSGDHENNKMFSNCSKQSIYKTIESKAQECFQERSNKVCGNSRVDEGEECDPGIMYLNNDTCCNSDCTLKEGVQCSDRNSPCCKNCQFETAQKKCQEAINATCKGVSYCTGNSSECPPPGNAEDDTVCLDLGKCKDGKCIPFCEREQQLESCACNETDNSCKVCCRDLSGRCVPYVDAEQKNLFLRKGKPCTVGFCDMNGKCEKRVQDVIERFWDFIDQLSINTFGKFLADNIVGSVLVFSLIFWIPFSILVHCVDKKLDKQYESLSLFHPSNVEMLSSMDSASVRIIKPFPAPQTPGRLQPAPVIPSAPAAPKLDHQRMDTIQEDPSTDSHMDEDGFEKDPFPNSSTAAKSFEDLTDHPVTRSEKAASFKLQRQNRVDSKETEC
Experimental: The cDNA was incorporated into an expression vector. Then, this vector was transfected into mammalian cells or insect cells, and ADAM17 was expressed and obtained.
Next, the activity of ADAM17 was measured, as follows in the presence or absence of the test substances, in which obtained ADAM17 was used as an enzyme, and a fluorescent synthetic substrate Nma (N-methyl anthranilate)-[…]Dnp (dinitrophenyl)-D-Arg-NH2 containing an ADAM17-cleavage sequence of membrane-bound TNF was used as a substrate.
Specifically, 90 μL of 14 units of an enzyme solution (1 unit is defined as an amount of enzyme degrading […] of the substrate in 1 minute at 25° C.) prepared with Assay Buffer A (50 mmol/L Tris-HCl buffer (pH 7.5) containing 200 mmol/L sodium chloride, 5 mmol/L calcium chloride, 10 μmol/L zinc sulfate, and 2 mg/mL bovine serum albumin) was mixed with 90 μL of the fluorescent synthetic substrate adjusted to be 20 μmol/L with Assay Buffer B (50 mmol/L Tris-HCl buffer (pH 7.5) containing 200 mmol/L sodium chloride, 5 mmol/L calcium chloride, 10 μmol/L zinc sulfate, and 0.05% PLURONIC F-68), and allowed for reaction at 37° C. for 1.5 hours. Thereafter, the enzyme activity was determined by measurement using a fluorometer (Fluoroskan Ascent) under conditions of an excitation wavelength of 355 nm and a measurement wavelength of 460 nm. Then, an inhibition rate was obtained based on the enzyme activities in the presence and absence of the test compounds, and the 50% inhibitory concentration (IC50) was calculated.
A disintegrin and metalloproteinase 17 (ADAM17, TACE) (used was one prepared at Kaken Pharmaceutical Co., Ltd. by employing the genetic recombination in the same way as in Test Example 3. Note that, the same as in Test Example 3, 1 unit is defined as an amount of enzyme degrading 1 pmol of substrate in 1 minute at 25° C.)
(§3) TACE substrate (the same as one used in Test Example 3): excitation wavelength at 355 nm, emission wavelength at 460 nm
as §2

[2] = system: ES cell-derived platelets (ADAM17-mediated GPIbα shedding); test: Function-maintaining effect on ES cell-derived platelets in culture system (flow cytometry CD41/CD42b, platelet count)
Experimental: As human ES cells (hES cells), a KhES cell line (KhES-3) established by and provided from Institute for Frontier Medical Sciences, Kyoto University was used.
The human ES cells or the human iPS cells were seeded on the feeder cells such that the cell count was 5×10^4 to 1×10^5/10-cm dish. The cells were cultured in Iscove's Modified Dulbecco's Medium (IMDM, manufactured by Invitrogen Corp/GIBCO) supplemented with 15% FBS (product name: CELLect™ GOLD, manufactured by ICN Biomedicals Inc.), 2 mM L-glut amine (manufactured by Invitrogen Corp.), ITS supplement (10 μg/ml insulin, 5.5 mg/ml human transferrin, 5 ng/ml sodium selenite) (manufactured by Sigma-Aldrich Co.), 50 μg/ml ascorbic acid (Sigma-Aldrich Co.), 0.45 mM α-monothioglycerol (MTG, manufactured by Sigma-Aldrich Co.), and 20 ng/ml vascular endothelial growth factor (VEGF, manufactured by R&D Systems, Inc.). Further, this culturing was carried out at 37° C. in 5% CO2 and 21% O2 (atmospheric oxygen) using a CO2 incubator (product name: HERA CELL 150i, manufactured by Thermo Fisher Scientific K. K.). Then, the medium was replaced every 3 days, and the culturing was continued under the conditions until Day 15 when a large number of sac structures (sac-like structures) containing hematopoietic progenitor cells therein were observed.
Next, after detached from the dish, the sac structures were disrupted and suspended in a 3% FBS-containing phosphate buffer solution (PBS). Then, the suspension was passed through a 40-μm cell strainer (manufactured by BD). The solution thus passed through was centrifuged at 440×g for 10 minutes to collect hematopoietic progenitor cells, and the cells was counted. The hematopoietic progenitor cells were seeded on 10T1/2 cells newly prepared in a 6-well plate (6×10^5 cells/plate) exposed to 50-Gy radiation such that the number of the hematopoietic progenitor cells was 2 to 3×10^4/well. The hematopoietic progenitor cells were further cultured for 8 days in IMDM (manufactured by Invitrogen Corp/GIBCO) supplemented with 15% FBS (product name: CELLect™ GOLD, manufactured by ICN Biomedicals Inc.), 2 mM L-glutamine (manufactured by Invitrogen Corp.), ITS supplement (10 μg/ml insulin, 5.5 mg/ml transferrin, 5 ng/ml sodium selenite) (manufactured by Sigma-Aldrich Co.), 50 μg/ml ascorbic acid (manufactured by Sigma-Aldrich Co.), 0.45 mM MTG (manufactured by Sigma-Aldrich Co.), 100 ng/ml human thrombopoietin (human TPO, manufactured by PeproTech, Inc.), 50 ng/ml human stem cell factor (SCF, manufactured by PeproTech, Inc.), and 25 U/ml heparin. Thereby, megakaryocytes/platelets were induced.
Subsequently, the induced megakaryocytes/platelets were collected with an anticoagulant solution (Acid Citrate Dextrose, ACD), followed by centrifugation at 900 rpm for 10 minutes without a break. The supernatant obtained by the centrifugation was further centrifuged at 1500 rpm for 10 minutes without a break to remove the supernatant. Thereafter, the numbers of megakaryocytes and platelets in the precipitate thus obtained were analyzed by flow cytometry using antibodies for staining.
Note that, in the flow cytometry, FACS Aria manufactured by Becton, Dickinson and Company was used. As the antibodies used to stain the megakaryocytes and the platelets, used were a Phycoerythrin (PE)-modified anti-human CD42a (GPIX) antibody, a PE-modified anti-human CD42b (GPIbα) antibody, and an allophycocyanin (APC)-labelled anti-CD41a (integrin αIIbbeta3 complex, HIP8 clone) antibody (manufactured by BD Bioscience). Additionally, in order to accurately measure the absolute numbers of the megakaryocytes and the platelets, the cells were stained with these antibodies, and the analysis was conducted by flow cytometry using TruCount beads (manufactured by BD Bioscience), also.

[3] = biological target: T3, Matrix metalloproteinase 17 (MMP-17) (Homo sapiens, UniProt Q9ULZ9); test: Enzyme inhibition experiment, MMP-17; type: biochemical; conditions: 3163 substrate, 25° C., 5 hours
T3 construct: purchased Calbiochem 475940
T3 sequence (Q9ULZ9 126-298 limits assumed): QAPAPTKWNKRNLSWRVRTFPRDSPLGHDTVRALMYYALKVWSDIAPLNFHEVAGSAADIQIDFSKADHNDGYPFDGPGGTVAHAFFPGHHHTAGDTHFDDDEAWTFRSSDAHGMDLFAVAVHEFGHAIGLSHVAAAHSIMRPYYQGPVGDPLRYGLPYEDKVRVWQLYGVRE
Experimental: Matrix metalloproteinase 17 (MMP-17) (manufactured by Calbiochem, product number: 475940)
as §1, §2

[4] = biological target: T4, Matrix metalloproteinase 14 (MMP-14) (Homo sapiens, UniProt P50281); test: Enzyme inhibition experiment, MMP-14; type: biochemical; conditions: 444221 substrate, 37° C., 5 hours
T4 construct: purchased Calbiochem 475935
Experimental: Matrix metalloproteinase 14 (MMP-14) (manufactured by Calbiochem, product number: 475935)
444221 substrate (DNP-Pro-Cha-Gly-Cys(Me)-His-Ala-Lys(Nma)-NH2, custom synthesis): excitation wavelength at 355 nm, emission wavelength at 460 nm
as §2

[5] = biological target: T5, A disintegrin and metalloproteinase 10 (ADAM10) (Homo sapiens, UniProt O14672); test: Enzyme inhibition experiment, ADAM10; type: biochemical; conditions: TACE substrate, 25° C., 5 hours
T5 construct: purchased Funakoshi Co., Ltd. 936-AD-020
T5 sequence (O14672 214-672 limits assumed): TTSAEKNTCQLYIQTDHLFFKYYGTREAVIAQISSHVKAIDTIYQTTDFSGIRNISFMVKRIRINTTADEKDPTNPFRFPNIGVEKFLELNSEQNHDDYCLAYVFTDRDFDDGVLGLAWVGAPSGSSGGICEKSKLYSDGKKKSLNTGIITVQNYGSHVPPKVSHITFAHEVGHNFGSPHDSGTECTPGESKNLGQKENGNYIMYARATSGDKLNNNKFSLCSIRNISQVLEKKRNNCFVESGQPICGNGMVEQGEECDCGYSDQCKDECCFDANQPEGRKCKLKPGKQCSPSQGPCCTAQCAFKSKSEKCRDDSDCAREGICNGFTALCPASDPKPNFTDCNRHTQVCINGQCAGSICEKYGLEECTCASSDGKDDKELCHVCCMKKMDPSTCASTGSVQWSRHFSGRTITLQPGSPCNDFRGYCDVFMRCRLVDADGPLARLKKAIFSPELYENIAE
Experimental: A disintegrin and metalloproteinase 10 (ADAM10) (manufactured by Funakoshi Co., Ltd., product code: 936-AD-020) and
as §3, §2

[6] = biological target: T6, Matrix metalloproteinase 13 (MMP-13) (Homo sapiens, UniProt P45452); test: Enzyme inhibition experiment, MMP-13; type: biochemical; conditions: 444221 substrate, 37° C., 4 hours
T6 construct: purchased Chemicon CC068
Experimental: Matrix metalloproteinase 13 (MMP-13) (manufactured by Chemicon, product number: CC068)
as §2, with “activity.” for “activity. An inhibition rate was obtained based on the enzyme activities in the presence and absence of the test substances, and the 50% inhibitory concentration (IC50) was calculated.”

T1 sequence (P08254 100-272 limits assumed): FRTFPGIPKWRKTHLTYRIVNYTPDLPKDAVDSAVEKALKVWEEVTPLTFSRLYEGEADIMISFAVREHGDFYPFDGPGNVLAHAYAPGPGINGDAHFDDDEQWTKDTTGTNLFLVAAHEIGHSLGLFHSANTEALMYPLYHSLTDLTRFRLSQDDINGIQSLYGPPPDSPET

SMILES: CNC(=O)[C@H](Cc1c[nH]c2ccccc12)NC(=O)[C@@H](CC(=O)NO)CC(C)C [GM6001, reference compound]
- IC50 [1]: 32 nM
- IC50 (ADAM17): 310 nM
- inhibitory activity on ADAM17 enzyme (in words) (ADAM17): weak
- specificity to ADAM17 in comparison with metalloproteinases other than ADAM17 (ADAM17; from Table 3): non-specifically and strongly inhibited metalloproteinases
- cytotoxicity ([2]; Test Example 5, 50 μM, 8-day addition): had cytotoxicity
- number of platelets obtained ([2]; Test Example 5, 8-day addition, 50 μM GM6001 vs 5 μM S-45282): fewer platelets than 5 μM S-45282
- inhibition of ADAM17-mediated GPIbα shedding (CD42b(+) percentage) ([2]; Test Example 5, added for 2 days or 8 days, GM6001 50 μM, S-45282 5 μM or 50 μM): inhibit ADAM17-mediated GPIbα shedding
- number of platelets obtained ([2]; Test Example 5, added for 2 days, 50 μM GM6001, 5 μM S-45282): approximately the same
- inhibition of ADAM17-mediated GPIbα shedding ([2]; Test Example 6, 8 days, S-45457 5 μM or 50 μM, GM6001 50 μM): inhibits ADAM17-mediated GPIbα shedding
- IC50 [3]: 3 nM
- IC50 [4]: 1.6 nM
- IC50 ADAM10 [5]: 410 nM
- IC50 [6]: 0.26 nM
